Source: the supplement of paper PMC5908809

Assays:
Experiment in all cases: relative IC50 (inflection point of fitted viability curve, relative to fitted max inhibition); higher = less sensitive
Conditions in all cases: 72 h
[1] = tested on: DERL-7 (IL-2 2.5 ng/mL)
Protocol: (§1)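 Drug sensitivity and resistance testing: 5 concentrations over a 10,000-fold range, 72 h at 37 °C, viability by CellTiter-Glo normalised to DMSO and benzethonium chloride controls. IC50 is the inflection point of a logistic fit (min fixed at 0, max fitted), so it is relative to the fitted maximal inhibition. Kept only where fitted max inhibition is at least 50%.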

[2] = tested on: IMC-1 (IL-2 20 ng/mL)
Protocol: as §1

[3] = tested on: KAI3 (IL-2 2.5 ng/mL)
Protocol: as §1

[4] = tested on: KHYG-1 (IL-2 2.5 ng/mL)
Protocol: as §1

[5] = tested on: NK-92 (IL-2 2.5 ng/mL)
Protocol: as §1

[6] = tested on: NK-YS (IL-2 2.5 ng/mL)
Protocol: as §1

[7] = tested on: NKL (IL-2 2.5 ng/mL)
Protocol: as §1

[8] = tested on: SNK-6 (IL-2 2.5 ng/mL)
Protocol: as §1

[9] = tested on: YT (IL-2 2.5 ng/mL)
Protocol: as §1

[10] = tested on: normal primary NK cells, pool 1 (3 donors) (IL-2 2.5 ng/mL)
Protocol: as §1

[11] = tested on: normal primary NK cells, pool 1 (3 donors), resting (IL-2 0 ng/mL)
Protocol: as §1

[12] = tested on: normal primary NK cells, pool 2 (3 donors) (IL-2 2.5 ng/mL)
Protocol: as §1

[13] = tested on: normal primary NK cells, pool 3 (3 donors) (IL-2 2.5 ng/mL)
Protocol: as §1

| SMILES | relative IC50 [1] [µM] | relative IC50 [2] [µM] | relative IC50 [3] [µM] | relative IC50 [4] [µM] | relative IC50 [5] [µM] | relative IC50 [6] [µM] | relative IC50 [7] [µM] | relative IC50 [8] [µM] | relative IC50 [9] [µM] | relative IC50 [10] [µM] | relative IC50 [11] [µM] | relative IC50 [12] [µM] | relative IC50 [13] [µM] |
| --- | --- | --- | --- | --- | --- | --- | --- | --- | --- | --- | --- | --- | --- |
| CN(C)Cc1ccc(S(=O)(=O)n2ccc(/C=C/C(=O)NO)c2)cc1 [Resminostat] | 1.04 | 3.48 | 0.304 | 0.731 | 0.629 | 1.3 | 0.258 | 0.829 | 1.46 | 0.667 | 0.268 | 1.16 | 1.72 |
| CCOc1cc2ncc(C#N)c(Nc3ccc(F)c(Cl)c3)c2cc1NC(=O)/C=C/CN(C)C [Pelitinib] | 0.293 | 0.966 | 0.26 | 0.382 | 0.51 | 0.82 | 0.475 | 0.103 | 0.496 | 0.3 | 0.459 | 0.26 | 0.429 |
| CCNC(=O)c1noc(-c2cc(C(C)C)c(O)cc2O)c1-c1ccc(CN2CCOCC2)cc1 [Luminespib] | 0.00305 | 0.00973 | 0.00347 | 0.0104 | 0.00737 | 0.00379 | 0.00328 | 0.0124 | 0.0262 | 0.00366 | – | 0.00327 | 0.00481 |
| CC(C)C[C@H](NC(=O)[C@H](CCc1ccccc1)NC(=O)CN1CCOCC1)C(=O)N[C@@H](Cc1ccccc1)C(=O)N[C@@H](CC(C)C)C(=O)[C@@]1(C)CO1 [Carfilzomib] | 0.00092 | 0.00326 | 0.00143 | 0.00295 | 0.00196 | 0.00291 | 0.00352 | 0.0028 | 0.00307 | 0.00161 | 0.00141 | 0.00177 | 0.00258 |
| CO[C@@H]1[C@H](N(C)C(=O)c2ccccc2)C[C@H]2O[C@]1(C)n1c3ccccc3c3c4c(c5c6ccccc6n2c5c31)C(=O)NC4 [Midostaurin] | 0.217 | 0.486 | 0.175 | 0.185 | 0.33 | 0.338 | 0.127 | 0.115 | 0.431 | 0.188 | 1.05 | 0.438 | 0.594 |
| COc1ccc(-c2cc3c(C)nc(N)nc3n([C@H]3CC[C@H](OCCO)CC3)c2=O)cn1 | 0.0413 | 4.02 | 0.163 | 0.476 | 0.0846 | 0.344 | 0.264 | 1.06 | 0.116 | 0.939 | 0.514 | 0.951 | 1.51 |
| CC[C@@]1(O)C(=O)OCc2c1cc1n(c2=O)Cc2cc3c(CN(C)C)c(O)ccc3nc2-1 [Topotecan] | 0.0549 | 0.0308 | 0.042 | 0.0338 | 0.0205 | 0.0396 | 0.035 | 0.0402 | 0.0525 | 0.772 | 2.88 | 1.32 | 1.03 |
| Cn1cc(CNCC2CCN(c3ncc(C(=O)NO)cn3)CC2)c2ccccc21 [Quisinostat] | 0.0106 | 0.0358 | 0.0147 | 0.0214 | 0.0395 | 0.0203 | 0.011 | 0.0901 | 0.0583 | 0.00778 | 0.00239 | 0.00599 | 0.0131 |
| Cc1cc(OCc2nnc(SC3CCCC3)n2-c2cccnc2)ccc1-c1ccc(S(C)(=O)=O)cc1 [NMS-873] | 1.41 | 0.0402 | 1.27 | 0.25 | 0.506 | 0.114 | 0.488 | 1.44 | 0.0487 | 0.909 | 0.455 | 0.767 | 1.68 |
| NC(=O)Nc1sc(-c2ccc(F)cc2)cc1C(N)=O [TPCA-1] | 0.367 | 7.19 | 0.218 | 0.381 | 0.86 | 1.44 | 0.274 | 0.514 | 0.912 | 0.997 | 2.31 | 0.658 | 1.02 |
| O=C(NC1CCNCC1)c1n[nH]cc1NC(=O)c1c(Cl)cccc1Cl [AT7519] | 0.356 | 0.317 | 0.355 | 0.753 | 1.27 | 0.236 | 0.204 | 0.307 | 0.424 | 0.265 | 0.4 | 0.319 | 0.381 |
| CC(C)CC(=O)Nc1n[nH]c2c1CN(C(=O)C1CCN(C)CC1)C2(C)C | 0.666 | 0.182 | 1.39 | 0.38 | 0.871 | 0.463 | 1.51 | 1.65 | 1.22 | 3 | 4.76 | 1.89 | 2.21 |
| COc1ccc(-c2nc(N3CCOCC3)c3sc(CN(C)c4ncc(C(=O)NO)cn4)cc3n2)cn1 [CUDC-907] | 0.0016 | 0.013 | < 0.001 | 0.00232 | 0.00264 | 0.00833 | < 0.001 | 0.00789 | 0.0147 | 0.00642 | 0.00345 | 0.00581 | 0.00882 |
| Cc1nc(Nc2n[nH]c3c2CN(C(=O)N[C@H](CN(C)C)c2ccccc2)C3(C)C)c2sccc2n1 | 0.0573 | 0.00406 | 0.243 | 0.0331 | 0.431 | 0.0835 | 0.503 | 1.34 | 0.266 | 1.42 | 1.3 | 0.575 | 1.59 |
| COc1cc(Nc2c(C#N)cnc3cc(OCCCN4CCN(C)CC4)c(OC)cc23)c(Cl)cc1Cl [Bosutinib] | 1.32 | 3.65 | 1.35 | 1.48 | 1.62 | 2.98 | 3.11 | 3.87 | 1.95 | 1.71 | 0.85 | 1.52 | 3.45 |
| CO[C@H]1/C=C\C=C(/C)C(=O)NC2=CC(=O)C(NCCN(C)C)=C(C[C@@H](C)C[C@H](OC)[C@H](O)[C@@H](C)/C=C(\C)[C@@H]1OC(N)=O)C2=O [Alvespimycin] | 0.0491 | 0.192 | 0.0445 | 0.0918 | 0.0688 | 0.0251 | 0.0319 | 0.0205 | 0.13 | 0.0294 | – | 0.0295 | 0.0864 |
| C1=N/C2=N/c3ccc(OCCN4CCCC4)c(c3)COC/C=C/COCc3cccc(c3)C(=C1)N2 [Pacritinib] | 0.56 | 3.88 | 0.569 | 0.826 | 1.22 | 0.982 | 0.777 | 1.39 | 0.91 | 0.41 | 0.838 | 0.367 | 0.627 |
